Laboratory results: patent US20170045513A1, “METHODS OF DIAGNOSING CELIAC DISEASE USING IP-10” (ImmusanT, Inc., priority 2014, published 2017)
Non-standard residues stand in square brackets, D forms with d. pGlu = O=C1CC[C@@H](C(=O)O)N1

Key:
Type in all cases: cell-based, human
[1] = system: gluten-reactive T cells; experiment: 96-well plate whole blood cytokine release, IFNγ by MAGPIX multiplex bead assay; settings: for Percent of maximal response to individual gluten peptides, IFNg: after oral gluten challenge; for IFNγ WB MAGPIX % max Mean: n = 8, blood after oral gluten challenge, individual peptides 5 μM (Peptide 2* of P14, Pepscan: 10 μg/mL (5.45 μM))
[2] = system: gluten-reactive T cells; experiment: 96-well plate whole blood cytokine release, IP-10 by MAGPIX multiplex bead assay; settings: for Percent of maximal response to individual gluten peptides, IP-10: after oral gluten challenge; for IP-10 WB MAGPIX % max Mean: n = 10, blood after oral gluten challenge, individual peptides 5 μM (Peptide 2* of P14, Pepscan: 10 μg/mL (5.45 μM))
[3] = system: gluten-reactive T cells; experiment: Overnight IFNγ ELISpot assay with fresh PBMC; settings: for Percent of maximal response to individual gluten peptides, ELISp: after oral gluten challenge; for IFNγ ELISpot % max Mean: n = 5, blood after oral gluten challenge, individual peptides 5 μM (Peptide 2* of P14, Pepscan: 10 μg/mL (5.45 μM))
Outline: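 Read-out is IFNγ spot-forming units per well, counted automatically after overnight culture of fresh PBMC (0.4 million/well) with single peptides (duplicate) or pools (triplicate). Donors: HLA-DQ2.5+ celiac patients on gluten-free diet, bled pre- and day 6 after 3-day oral gluten challenge.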

Substance | Percent of maximal response to individual gluten peptides, IFNg ([1]; Subject 2, Max. 116 pg/mL) | Percent of maximal response to individual gluten peptides, IFNg ([1]; Subject 3, Max. 799 pg/mL) | Percent of maximal response to individual gluten peptides, IFNg ([1]; Subject 4, Max. 136 pg/mL) | Percent of maximal response to individual gluten peptides, IFNg ([1]; Subject 6, Max. 72 pg/mL) | Percent of maximal response to individual gluten peptides, IFNg ([1]; Subject 7, Max. 17 pg/mL) | Percent of maximal response to individual gluten peptides, IFNg ([1]; Subject 8, Max. 47 pg/mL) | Percent of maximal response to individual gluten peptides, IFNg ([1]; Subject 9, Max. 67 pg/mL) | Percent of maximal response to individual gluten peptides, IFNg ([1]; Subject 10, Max. 229 pg/mL) | IFNγ WB MAGPIX % max Mean [1] | Percent of maximal response to individual gluten peptides, IP-10 ([2]; Subject 1, Max. 2331 pg/mL) | Percent of maximal response to individual gluten peptides, IP-10 ([2]; Subject 2, Max. 3646 pg/mL) | Percent of maximal response to individual gluten peptides, IP-10 ([2]; Subject 3, Max. 9492 pg/mL) | Percent of maximal response to individual gluten peptides, IP-10 ([2]; Subject 4, Max. 9463 pg/mL) | Percent of maximal response to individual gluten peptides, IP-10 ([2]; Subject 5, Max. 9336 pg/mL) | Percent of maximal response to individual gluten peptides, IP-10 ([2]; Subject 6, Max. 5863 pg/mL) | Percent of maximal response to individual gluten peptides, IP-10 ([2]; Subject 7, Max. 2330 pg/mL) | Percent of maximal response to individual gluten peptides, IP-10 ([2]; Subject 8, Max. 4019 pg/mL) | Percent of maximal response to individual gluten peptides, IP-10 ([2]; Subject 9, Max. 8349 pg/mL) | Percent of maximal response to individual gluten peptides, IP-10 ([2]; Subject 10, Max. 8922 pg/mL) | IP-10 WB MAGPIX % max Mean [2] | further results
(pE)QPPFSEQEQPVLPQ-amide (N-terminal pyroglutamate; C-terminal amide) [Peptide 13] | 47 % of max | 3 % of max | 0 % of max | 5 % of max | 1 % of max | 0 % of max | 0 % of max | 0 % of max | 7 % max | 0 % of max | 16 % of max | 70 % of max | 0 % of max | 6 % of max | 5 % of max | 0 % of max | 0 % of max | 0 % of max | 0 % of max | 10 % max | Percent of maximal response to individual gluten peptides, ELISp ([3]; Subject 3, Max. 18 SFU): 6 % of max; Percent of maximal response to individual gluten peptides, ELISp ([3]; Subject 4, Max. 36 SFU): 6 % of max; Percent of maximal response to individual gluten peptides, ELISp ([3]; Subject 6, Max. 16 SFU): 0 % of max; Percent of maximal response to individual gluten peptides, ELISp ([3]; Subject 8, Max. 17 SFU): 0 % of max; Percent of maximal response to individual gluten peptides, ELISp ([3]; Subject 10, Max. 11 SFU): 0 % of max; IFNγ ELISpot % max Mean [3]: 2 % max
(pE)QPYPQPELPYPQPQ-amide ([pGlu]QPYPQPELPYPQPQ-NH2; SMILES CC(C)C[C@H](NC(=O)[C@H](CCC(=O)O)NC(=O)[C@@H]1CCCN1C(=O)[C@H](CCC(N)=O)NC(=O)[C@@H]1CCCN1C(=O)[C@H](Cc1ccc(O)cc1)NC(=O)[C@@H]1CCCN1C(=O)[C@H](CCC(N)=O)NC(=O)[C@@H]1CCC(=O)N1)C(=O)N1CCC[C@H]1C(=O)N[C@@H](Cc1ccc(O)cc1)C(=O)N1CCC[C@H]1C(=O)N[C@@H](CCC(N)=O)C(=O)N1CCC[C@H]1C(=O)N[C@@H](CCC(N)=O)C(N)=O) [Peptide 15] | 46 % of max | 5 % of max | 24 % of max | 5 % of max | 6 % of max | 4 % of max | 100 % of max | 7 % of max | 25 % max | 4 % of max | 30 % of max | ≥ 100 % of max | 67 % of max | 33 % of max | 0 % of max | 6 % of max | 5 % of max | 69 % of max | 17 % of max | 33 % max | Percent of maximal response to individual gluten peptides, ELISp ([3]; Subject 3, Max. 18 SFU): 11 % of max; Percent of maximal response to individual gluten peptides, ELISp ([3]; Subject 4, Max. 36 SFU): 17 % of max; Percent of maximal response to individual gluten peptides, ELISp ([3]; Subject 6, Max. 16 SFU): 31 % of max; Percent of maximal response to individual gluten peptides, ELISp ([3]; Subject 8, Max. 17 SFU): 6 % of max; Percent of maximal response to individual gluten peptides, ELISp ([3]; Subject 10, Max. 11 SFU): 0 % of max; IFNγ ELISpot % max Mean [3]: 13 % max
(pE)SGEGSFQPSQENPQ-amide ([pGlu]SGEGSFQPSQENPQ-NH2; SMILES NC(=O)CC[C@H](NC(=O)[C@@H]1CCCN1C(=O)[C@H](CC(N)=O)NC(=O)[C@H](CCC(=O)O)NC(=O)[C@H](CCC(N)=O)NC(=O)[C@H](CO)NC(=O)[C@@H]1CCCN1C(=O)[C@H](CCC(N)=O)NC(=O)[C@H](Cc1ccccc1)NC(=O)[C@H](CO)NC(=O)CNC(=O)[C@H](CCC(=O)O)NC(=O)CNC(=O)[C@H](CO)NC(=O)[C@@H]1CCC(=O)N1)C(N)=O) [Peptide 9] | 19 % of max | 0 % of max | 0 % of max | 0 % of max | 0 % of max | 0 % of max | 0 % of max | 0 % of max | 2 % max | 0 % of max | 0 % of max | 0 % of max | 0 % of max | 0 % of max | 0 % of max | 0 % of max | 0 % of max | 0 % of max | 0 % of max | 0 % max | Percent of maximal response to individual gluten peptides, ELISp ([3]; Subject 3, Max. 18 SFU): 0 % of max; Percent of maximal response to individual gluten peptides, ELISp ([3]; Subject 4, Max. 36 SFU): 0 % of max; Percent of maximal response to individual gluten peptides, ELISp ([3]; Subject 6, Max. 16 SFU): 0 % of max; Percent of maximal response to individual gluten peptides, ELISp ([3]; Subject 8, Max. 17 SFU): 6 % of max; Percent of maximal response to individual gluten peptides, ELISp ([3]; Subject 10, Max. 11 SFU): 0 % of max; IFNγ ELISpot % max Mean [3]: 1 % max
